Source: article PMC11123841, “Discovery and Synthesis of Hydroxy-L-Proline Blockers of the Neutral Amino Acid Transporters SLC1A4 (ASCT1) and SLC1A5 (ASCT2)” (Molecules, 2024)
pIC50: −log10 of the molar value.

How the values were obtained:
Format in all cases: cell-based
[1] = target: T1, SLC1A4 (Homo sapiens, UniProt P43007); experiment: TEVC block of anion leak conductance in oocytes; conditions: SLC1A4; compared with ligands of refs 43, 65
T1 construct: expressed in transfected cells; host or cells: Xenopus laevis oocytes (cRNA injection)
T1 sequence (P43007 1-532): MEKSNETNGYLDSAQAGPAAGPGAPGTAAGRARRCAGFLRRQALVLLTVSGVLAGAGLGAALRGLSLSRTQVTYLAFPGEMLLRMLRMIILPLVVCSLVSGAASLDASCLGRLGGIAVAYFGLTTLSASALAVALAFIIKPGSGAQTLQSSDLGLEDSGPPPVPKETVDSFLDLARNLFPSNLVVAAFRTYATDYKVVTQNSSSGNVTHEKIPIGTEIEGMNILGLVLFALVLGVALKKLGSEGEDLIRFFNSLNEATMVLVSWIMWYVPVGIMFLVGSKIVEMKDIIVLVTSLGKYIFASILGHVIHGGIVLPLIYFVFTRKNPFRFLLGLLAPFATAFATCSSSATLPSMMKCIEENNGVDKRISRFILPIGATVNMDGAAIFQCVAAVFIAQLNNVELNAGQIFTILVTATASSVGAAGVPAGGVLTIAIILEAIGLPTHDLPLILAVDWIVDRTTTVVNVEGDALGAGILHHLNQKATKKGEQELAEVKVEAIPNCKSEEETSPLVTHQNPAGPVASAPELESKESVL
Excerpt: (§1) The currents induced by substrates and blocked by hydroxyproline analogs shared a reversal potential shown in the current/voltage relationship consistent with the conductance originating from the same ion pore (Figure 3, inset). […] The observed dose–response relationships are independent of competing substrates, and thus provide a direct measure of the equilibrium inhibition constant (Ki). Each synthetic hydroxyproline analog was functionally assessed for its capacity to inhibit SLC1A4 and SLC1A5 leak currents with affinities reported in Table 1 as determined or approximated Ki.
(§2) Two-electrode voltage clamp (TEVC) transporter currents were recorded with a GeneClamp 500 amplifier and Digidata 1320A analog–digital interface (Molecular Devices, San Jose, CA, USA). Electrodes (0.2–1.0 MΩ) were filled with 3M KCl and the recording chamber was grounded with an agar bridge. Data were acquired with Axograph (v1.7.6) and LabChart (v7) and analyzed with Kaleidagraph software (v4.1) (Synergy, Reading, PA, USA). Uncoupled anion currents associated with the transport of substrate and block of SLC1A4 or SLC1A5 mediated leak conductance were recorded in the presence of Ringer with 50% substitution of NaCl by NaSCN to amplify the non-transported anion conductance.
(§3) Figure 3 AHPCs block a leak current in SLC1A4 and SLC1A5. […] Inset (A): The current and voltage relationship for SLC1A4 currents activated by Ala or blocked by 14b are determined by subtracting voltage jumps in buffer.

[2] = target: T2, mSLC1A5 (Mus musculus, UniProt P51912); experiment: TEVC block of anion leak conductance in oocytes; conditions: SLC1A5; compared with ligands of refs 43, 65
T2 construct: expressed in transfected cells; host or cells: Xenopus laevis oocytes (cRNA injection)
T2 sequence (P51912 1-553): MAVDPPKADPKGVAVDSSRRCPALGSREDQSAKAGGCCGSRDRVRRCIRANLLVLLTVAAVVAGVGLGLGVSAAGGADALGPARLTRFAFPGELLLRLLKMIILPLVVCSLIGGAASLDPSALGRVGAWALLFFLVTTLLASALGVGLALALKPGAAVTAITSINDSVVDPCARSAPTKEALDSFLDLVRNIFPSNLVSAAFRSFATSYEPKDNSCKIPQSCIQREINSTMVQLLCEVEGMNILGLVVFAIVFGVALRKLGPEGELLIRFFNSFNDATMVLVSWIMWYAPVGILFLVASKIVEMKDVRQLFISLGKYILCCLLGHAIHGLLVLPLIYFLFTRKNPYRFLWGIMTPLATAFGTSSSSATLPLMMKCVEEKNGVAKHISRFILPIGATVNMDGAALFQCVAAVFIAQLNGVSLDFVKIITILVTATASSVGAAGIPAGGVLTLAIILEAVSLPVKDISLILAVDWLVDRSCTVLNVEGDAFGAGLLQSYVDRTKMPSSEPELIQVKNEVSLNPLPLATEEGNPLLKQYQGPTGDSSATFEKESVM
Excerpt: as §1, §2, §3

[3] = target: T1, SLC1A4; experiment: [3H]L-alanine uptake block in oocytes
Experimental: Uptake was halted by washing 3 times with 4 °C ND96 buffer. Oocytes were then lysed in 0.1% Triton X-100, and radioactivity was counted via liquid scintillation. Dose response curves were generated by fitting fractional inhibition (I) to the expression I = Imax × [inhibitor]/([inhibitor] + IC50).

[4] = target: T1, SLC1A4; experiment: [3H]D-serine uptake in oocytes; conditions: [3H]D-serine 100 nM, 10 µM BPOHP
Experimental: page 6: vi Figure SM-3A. […] with no effect on SL[…] neutral amino acid transporters SLC38A1(ATA1), SLC38A2 (ATA2), and SLC38A4 (ATA3). SM-3B. […] by application of 10μM BPOHP. Figure SM-4. Tosic acid approach to compound 12c. (i) Tosylic acid 0.1M in THF 60◦C. (ii) […] S.Figure 3 A. […] SLC38A1(ATA1), SLC38A2 (ATA2), and SLC38A4 (ATA3). B. […] SLC7A10+SLC3A2 (asc1+4F2). […]

O=C(O)[C@H]1NC[C@@H](OCc2ccc(-c3ccccc3)cc2)[C@@H]1O [14e]
fold improvement in affinity over ligands previously reported [1]: 7–25 fold | fold improvement in affinity over ligands previously reported [2]: 7–25 fold | pIC50 [3]: 6.89 | effect on [3H]D-serine uptake [4]: blocked
